Experimental data as given in EP0631668B1, “DETERMINATION OF BINDING AFFINITY USING MAGNETICALLY-LABELED BINDING MEMBERS” (ABBOTT LABORATORIES, priority 1992, dated 1993).

Molecular target: T1, streptavidin-coated paramagnetic microparticle (Streptomyces avidinii, UniProt P22629)
T1 construct: purchased Advanced Magnetics, Cambridge, MA
Assay: Magnetically assisted avidin-biotin binding assay (competitive inhibition, balance readout)
Conditions: free biotin concentration 125 nanograms/milliliter (80 µl assayed); 12 milligrams at 0 nanograms/milliliter; Figure 6
Experimental: The following reagents and samples were used in a binding assay:
The magnetically-labeled reagent was a streptavidin-coated paramagnetic microparticle (Advanced Magnetics, Cambridge, MA; average one micron in diameter, with 5x10^8 particles per mg, supplied as a 5 mg/ml suspension).
Incubation was continued at 37° C for an additional 45 minutes. The wells were then emptied and washed with PBS using a wash bottle.
The magnetically-labeled reagent was first combined with the test sample, thereby forming a reaction mixture which was incubated for one hour at 37° C. […] The unbound magnetically-labeled reagent was removed from the reaction mixture by means of magnetic attraction.

T1 sequence (P22629 25-183): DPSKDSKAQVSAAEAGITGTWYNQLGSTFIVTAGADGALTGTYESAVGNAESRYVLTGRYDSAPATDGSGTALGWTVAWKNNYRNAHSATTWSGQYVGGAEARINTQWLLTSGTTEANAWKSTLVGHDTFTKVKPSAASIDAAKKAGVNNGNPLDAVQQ

O=C(O)CCCC[C@@H]1SC[C@@H]2NC(=O)N[C@@H]21 [biotin]
force change detected by the balance means: zero
